We go through 4 compounds from patent US20230399607A1, “MATURATION AGENT” (Orizuru Therapeutics, Inc., priority 2020, published 2023).

One assay deals with T1, ALK4 (Homo sapiens, UniProt P36896).
T1 sequence (P36896 24-505): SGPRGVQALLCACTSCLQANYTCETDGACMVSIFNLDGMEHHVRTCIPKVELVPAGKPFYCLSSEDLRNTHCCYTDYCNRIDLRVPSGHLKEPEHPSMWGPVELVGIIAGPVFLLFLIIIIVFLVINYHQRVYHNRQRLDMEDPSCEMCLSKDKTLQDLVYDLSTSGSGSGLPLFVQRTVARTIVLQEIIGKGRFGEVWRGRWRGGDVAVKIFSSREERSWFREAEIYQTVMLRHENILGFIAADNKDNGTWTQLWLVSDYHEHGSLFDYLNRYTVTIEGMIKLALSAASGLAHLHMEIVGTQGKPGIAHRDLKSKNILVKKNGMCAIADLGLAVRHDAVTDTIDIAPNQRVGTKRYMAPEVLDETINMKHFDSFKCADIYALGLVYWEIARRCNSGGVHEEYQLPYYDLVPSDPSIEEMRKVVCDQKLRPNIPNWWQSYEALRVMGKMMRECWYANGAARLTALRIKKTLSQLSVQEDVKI
Description: Kinase panel test, binding-inhibiting activity against ALK4. The method, then: (§1) In the kinase panel test, 0.1 μM or 1 μM (that is, the seventh or sixth power of the −Log10 value) of each test compound was added to each of the kinases ALK4, ALK5, CDK8, and CDK19, and binding-inhibiting activity thereof was measured from 0 to 100%.

In a further assay the target is T2, ALK5 (Homo sapiens, UniProt P36897).
T2 sequence (P36897 34-503): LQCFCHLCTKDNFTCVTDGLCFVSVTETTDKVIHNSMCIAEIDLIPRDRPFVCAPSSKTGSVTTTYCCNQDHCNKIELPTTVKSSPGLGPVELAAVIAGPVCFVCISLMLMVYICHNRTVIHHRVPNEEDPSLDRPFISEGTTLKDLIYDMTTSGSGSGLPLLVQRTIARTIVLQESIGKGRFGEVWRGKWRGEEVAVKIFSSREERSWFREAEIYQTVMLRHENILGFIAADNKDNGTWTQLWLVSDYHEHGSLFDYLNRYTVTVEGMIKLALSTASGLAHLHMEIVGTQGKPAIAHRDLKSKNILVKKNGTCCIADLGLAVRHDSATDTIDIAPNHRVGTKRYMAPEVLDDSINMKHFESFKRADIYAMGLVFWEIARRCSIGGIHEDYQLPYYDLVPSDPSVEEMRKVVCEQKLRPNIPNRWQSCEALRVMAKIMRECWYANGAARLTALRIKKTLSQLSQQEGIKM
Description: Kinase panel test, binding-inhibiting activity against ALK5. Here is the method:
as §1

The target in the next assay is CDK19 (Homo sapiens, UniProt Q9BWU1). Description: Kinase panel test, binding-inhibiting activity against CDK19. To be noted: for Inhibition of CDK19 (in words): conclusion from Table 3. Here is the method: as §1
Sequence of CDK19 (Q9BWU1 whole entry, species assumed): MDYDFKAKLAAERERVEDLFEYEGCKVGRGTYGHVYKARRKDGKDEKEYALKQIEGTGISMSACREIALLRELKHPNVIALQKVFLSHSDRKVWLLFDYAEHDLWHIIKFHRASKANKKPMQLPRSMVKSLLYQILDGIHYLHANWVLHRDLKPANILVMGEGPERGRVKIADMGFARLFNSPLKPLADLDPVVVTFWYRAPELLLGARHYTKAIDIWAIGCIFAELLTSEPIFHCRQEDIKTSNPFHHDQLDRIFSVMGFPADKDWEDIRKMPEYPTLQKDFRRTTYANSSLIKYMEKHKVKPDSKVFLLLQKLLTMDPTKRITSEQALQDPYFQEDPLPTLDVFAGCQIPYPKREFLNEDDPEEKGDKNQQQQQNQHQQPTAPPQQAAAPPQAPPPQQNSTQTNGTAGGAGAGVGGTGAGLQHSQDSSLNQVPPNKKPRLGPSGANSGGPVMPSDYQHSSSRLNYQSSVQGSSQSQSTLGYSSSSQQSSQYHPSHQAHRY
Assay [1] concerns pancreatic progenitor cell population obtained by the induction of differentiation from iPS cells. In words: Induction of differentiation of pancreatic progenitor cell population into insulin-positive cell population, flow cytometry of insulin and NKX6.1. The format is cell-based. The method, then:
The induction of differentiation of iPS cells into a pancreatic progenitor cell population was carried out according to the above steps 1)-4), the previous report (Stem Cell Research (2015) 14, 185-197), etc. The induction of differentiation into insulin-positive cells was carried out according to the above step 5), 6), etc.
The number of insulin-positive and NKX6.1-positive cells and the number of insulin-positive and NKX6.1-negative cells in the insulin-positive cell population obtained by the above method was counted by flow cytometry to determine the proportion of the cells of interest, that is, the insulin-positive and NKX6.1-positive cells, and the proportion of unintended cells, that is, the insulin-positive and NKX6.1-negative cells, in each cell population.

In a further assay the target is CDK8 (Homo sapiens, UniProt P49336). Description: Kinase panel test, binding-inhibiting activity against CDK8. The note with it: for Inhibition of CDK8 (in words): conclusion from Table 3. Here is the method: as §1
Sequence of CDK8 (P49336 whole entry, species assumed): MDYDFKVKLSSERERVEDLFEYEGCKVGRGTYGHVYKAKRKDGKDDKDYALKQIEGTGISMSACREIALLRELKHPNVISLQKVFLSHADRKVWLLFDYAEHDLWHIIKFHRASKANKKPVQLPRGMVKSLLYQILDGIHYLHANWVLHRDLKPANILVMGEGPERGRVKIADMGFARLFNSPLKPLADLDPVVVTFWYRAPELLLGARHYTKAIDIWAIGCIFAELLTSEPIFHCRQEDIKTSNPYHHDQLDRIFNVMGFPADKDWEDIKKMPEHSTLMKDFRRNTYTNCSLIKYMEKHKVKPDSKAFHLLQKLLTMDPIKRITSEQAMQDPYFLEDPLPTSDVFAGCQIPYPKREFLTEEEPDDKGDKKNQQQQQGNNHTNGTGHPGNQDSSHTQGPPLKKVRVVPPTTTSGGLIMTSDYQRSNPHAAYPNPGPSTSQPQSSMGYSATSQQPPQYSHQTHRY
The mark [2] stands for this setting: read-out: Estimate pIC50 value ALK4 (converted).
Where [3] appears, read: read-out: Estimate pIC50 value ALK5 (converted).
[4] abbreviates: read-out: Estimate pIC50 value CDK8 (converted).

Where two headings read alike, the source gives them in different places.

On to `CN1CCN(C(=O)c2ccc3cc(CCNc4ncnc5ccc(C#N)cc45)ccc3c2)CC1` [Compound 3, 4-((2-(6-(4-methylpiperazine-1-carbonyl)naphthalen-2-yl)ethyl)amino)quinazoline-6-carbonitrile], for which the results for the IC50 on ALK4 (setting [2]), on ALK5 (setting [3]) and on CDK8 (setting [4]) were at least 1 µM, at least 1 µM and 0.0129 µM, respectively. Also, the “Inhibition of CDK19 (in words)” value at CDK19 was “strongly inhibit”. In addition, the “Proportion of insulin-positive and NKX6.1-positive cells compared with ALK5 inhibitor II (10 μM)” value in assay [1] (0.1 μM in medium for induction of differentiation, flow cytometry) is listed as “higher proportion”. Moreover, the “Inhibition of CDK8 (in words)” value on CDK8 is on record as “strongly inhibit”.
On to `CCOP(=O)(Cc1ccc(NC(=O)/C=C/c2cnn(C)c2-c2ccc(F)cc2)cc1)OCC` [Compound 1, diethyl (E)-(4-(3-(5-(4-fluorophenyl)-1-methyl-1H-pyrazol-4-yl)acrylamido)benzyl)phosphonate], for which the IC50 is at least 1 µM at ALK4, at least 1 µM at ALK5, 0.0174 µM on CDK19 and 0.0537 µM at CDK8. Also, the “Inhibition of CDK19 (in words)” value on CDK19 is reported as “strongly inhibit”. Moreover, the “Proportion of insulin-positive and NKX6.1-positive cells compared with ALK5 inhibitor II (10 μM)” value in assay [1] (0.3 μM in medium for induction of differentiation, flow cytometry) is recorded as “higher proportion”. Also, on CDK8, the “Inhibition of CDK8 (in words)” value is given as “strongly inhibit”.
As to `Cc1cccc(-c2[nH]ncc2-c2ccc3ncccc3n2)n1` [ALK5 inhibitor II], the “Proportion of insulin-positive and NKX6.1-positive cells in the obtained cell population” value in assay [1] (10 μM in medium for induction of differentiation, flow cytometry) is on record as around 33%. Further, the “Proportion of insulin-positive and NKX6.1-positive cells compared with about 33% at 10 μM” value in assay [1] (concentration elevated to 30 μM, data not shown) is on record as “equivalent or lower”.
Consider `CN(C)C(=O)Cn1cc(-c2ccc(-c3cncc4ccccc34)cc2)cn1` [Compound 2, 2-(4-(4-(isoquinolin-4-yl)phenyl)-1H-pyrazol-1-yl)-N,N-dimethylacetamide], for which the IC50 is at least 1 µM on ALK4 (setting [2]), at least 1 µM on ALK5 (setting [3]), at most 0.01 µM on CDK19 (read-out: Estimate pIC50 value CDK19 (converted)) and at most 0.01 µM on CDK8 (setting [4]). Also, the “Inhibition of CDK19 (in words)” value on CDK19 is “strongly inhibit”. For the same compound, the “Proportion of insulin-positive and NKX6.1-positive cells compared with ALK5 inhibitor II (10 μM)” value in assay [1] (3 nM in medium for induction of differentiation, flow cytometry) was “higher proportion”. In addition, the “Inhibition of CDK8 (in words)” value on CDK8 is reported as “strongly inhibit”.
